Results reported in EP0320366A1, “Monoclonal antibodies against phospholipase A2 from the venom of snakes of the families Elapides and Hidrophides, methods for their preparation and their use in detecting poisoning caused by these snake families” (COMMISSARIAT A L'ENERGIE ATOMIQUE, priority 1987, dated 1989).

Tests used:
[1] = biological target: T1, notexine (PLA₂ du venin de Notechis scutatus scutatus) en présence d'anticorps MN₁ (Notechis scutatus scutatus, UniProt P00608); test: Enzymatic activity of notexin pre-incubated with monoclonal antibody MN₁, by pH-stat titration and Lineweaver-Burk analysis; type: biochemical; conditions: same substrate and conditions; MN₁ in 10-fold molar excess over notexin, pre-incubated 1 h at room temperature; read graphically; also printed as 0,034 M
T1 sequence (P00608 1-119): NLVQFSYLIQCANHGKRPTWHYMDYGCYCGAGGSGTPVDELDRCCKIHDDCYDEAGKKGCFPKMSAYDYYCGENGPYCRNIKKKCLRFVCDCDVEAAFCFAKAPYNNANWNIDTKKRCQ
Experimental: (§1) La mesure de l'activité enzymatique est réalisée à l'aide d'un appareil pH stat (Methrom). Les acides gras libérés sont titrés à pH constant (pH = 8), par une solution d'hydroxyde de Na 0,01 N à 40°C.
(§2) Le substrat est une émulsion de phosphatidylcholine (Halpert - Eaker, 1975), dans une solution de CaCl₂ 20 mM, NaCl 0,12 M, en présence de désoxycholate de sodium.
(§3) Le rapport concentration finale de phosphatidylcholine/concentration finale de désoxycholate de sodium est maintenu constant, égal à 3,7.
(§4) Les solutions initiales sont : phosphatidylcholine : 600 mM dans l'éthanol, désoxycholate de sodium : 270 mM dans H₂O. Le volume réactionnel final est de 4 ml.
(§5) Les volumes de soude ajoutés pour maintenir le pH constant sont enregistrés automatiquement en fonction du temps.
Les anticorps monoclonaux sont dialysés pendant 24 heures dans la solution de CaCl₂ utilisée pour effectuer les mesures, afin d'éviter une modification du pH du milieu réactionnel, lors de l'addition des anticorps. Ils sont incubés avec la notexine pendant une heure à température ambinate.
L'activité enzymatique de la notexine ainsi traitée, est alors mesurée.
L'analyse cinétique de la réaction enzymatique a été faite par deux méthodes : mesure de Vi et mesure de Vmax. […]

[2] = biological target: T2, notexine (PLA₂ du venin de Notechis scutatus scutatus), notexine seule (Notechis scutatus scutatus, UniProt P00608); test: Enzymatic activity of notexin by pH-stat titration of released fatty acids, Lineweaver-Burk analysis; type: biochemical; conditions: substrate: phosphatidylcholine emulsion 7,5-82,5 mM with sodium deoxycholate (ratio 3,7), CaCl₂ 20 mM, NaCl 0,12 M, pH 8, 40°C; notexin 0,5 µg/4 ml; read graphically; also printed as 0,034 M
T2 sequence (P00608 1-119): T1 sequence (P00608 1-119)
Experimental: as §1, §2, §3, §4, §5
L'analyse cinétique de la réaction enzymatique a été faite par deux méthodes : mesure de Vi et mesure de Vmax.
Pour l'étude de Vi = f( [S] ) et 1/Vi = f(1/ [S]), à concentration de notexine constante ( [Et] = 0,5 µg/4 ml), la concentration de substrat varie de 7,5 mM à 82,5 mM. La mesure est réalisée en absence et en présence d'anticorps monoclonaux polyspécifiques MN₁, en excès molaire de 10 par rapport à la notexine. […]

## phosphatidylcholine
[1]
  Km: 34 mM
[2]
  Km: 34 mM
